This experiment concerns 35mer RNA aptamer (RNA, aptamer) GGCGUGUAGGAUAUGCUUCGGCAGAAGGACACGCC
As to the kind of experiment: fluorescence quenching of ligand. As to conditions: 50 mM NaCl, 10 mM MgCl2; 100 mM HEPES, 295 K; 1 µM ligand, RNA titrated.

The structures appear in SMILES notation.

Take `Cc1cc2nc3c(=O)[nH]c(=O)nc-3n(C[C@H](O)[C@H](O)[C@H](O)COP(=O)(O)O)c2cc1C`: the ΔGassociation was -8.84 ± 0.24 kcal/mol.
